# Measured values published in patent publication US6632843B1, “Treatment of bruxism” (priority 2000, dated 2003).
# Experiments:
# [1] = taken orally; cited from earlier work
# [2] = after application
# From the text: Cyclobenzaprine is a 5-HT2 receptor antagonist and its muscle relaxant effect is due to inhibition of serotonergic neurons.
structure (smiles),measurement,setting,value
"CN(C)CCC=C1c2ccccc2C=Cc2ccccc21 [cyclobenzaprine, Cyclobenzaprine]",half life,[1],as long as one to three days
same,plasma protein binding,[1],highly bound to plasma proteins
same,time to clinical improvement,[2],as early as the first 20 minutes
